Experimental data as given in patent US8846747B2, “Compounds and methods for altering lifespan of eukaryotic organisms” (University of Rochester, priority 2009, dated 2014).

Key:
RAW 264.7 cells = test: LPS-induced TNF-α secretion from RAW 264.7 cells (ELISA); format: cell-based, murine; details: compound 1 micromolar, LPS 10 ng/ml for 6 hrs; FIG. 3
Method: FIG. 3. […] To obtain the data summarized in FIG. 3, RAW […] cells were incubated with Scrims (compounds of present invention) (1 uM), PI3K inhibitor positive control (LY-294002; 25 uM) or vehicle (DMSO) for 1 hr. LPS (10 ng/ml) was added to the medium. 6 hrs post LPS administration medium was collected and analyzed for TNFa levels using ELISA.
In vitro anti-inflammatory activity in RAW 264.7 cells (murine leukaemic monocyte macrophage cell line): Lipopolysaccharide (LPS)-induced secretion of cytokines from RAW cells is a recognized in vitro assay for anti-inflammatory drugs. The anti-inflammatory activities of C1-1, C1-2, C1-3, C1-4, and C1-5 in the RAW cell model. RAW cells exposed to LPS were incubated with each of the five molecules at 1 micromolar concentration. The PIK3 inhibitor LY-294002 was used at 25 micromolar as a positive control. […] LPS was administered at 10 ng/ml for 6-hrs. TNF-α levels were quantified by ELISA assay. Results are presented as % of control with standard deviations of three replicates.

TNF-α-treated mice = test: TNF-α-induced vascular inflammation in mice (leukocyte rolling in mesenteric vessels); format: in vivo, mouse; details: ip 6 mg/kg once (1 hour) or twice (24 hours and 1 hour) prior to TNF-α; compared to TNF-α-treated control mice; FIG. 5
Method: FIG. 5. Graphical results showing in vivo reduction of TNF-α-induced vascular inflammation in mice. To obtain the data summarized in FIG. 5, mice (3 each group) were injected with vehicle or Cob 1-2 (ip, 6 mg/kg in DMSO). Two treatments were used: i) 1 dose an hour before TNFa and, ii) 2 doses (24 hrs and 1 hr before TNFa ). TNFa was administered ip (20 ug/kg). 3 hours post TNFa administration, mice were anesthetized, their mesentery was exposed and placed on an inverted fluorescent microscope stage. Lymphocyte velocities within veins was determined by analyzing video recordings
In vivo reduction of TNF-α-induced vascular inflammation in mice: The affects of drugs on vascular inflammation can be assessed by quantifying the rates of leukocytes rolling in mouse mesenteric vessels following intraperitoneal administration of TNF-α (Craig N. Morrell, Kenji Matsushita, and Charles J. Lowenstein. A Novel Inhibitor of N-Ethylmaleimide-Sensitive Factor Decreases Leukocyte Trafficking and Peritonitis. JPET 2005; 314:155-161). Vascular inflammation was induced in two groups of mice that were treated with C1-2 either once (1 hour) or twice (24 hours and 1 hour) prior to TNF-α administration.

DeaD strain BB579 = test: yeast Death of Daughters (DeaD) lifespan assay, reversal of nicotinamide (NAM) lifespan shortening; format: cell-based, S. cerevisiae (yeast); details: Saccharomyces cerevisiae, BB579, read-out: C50 (concentration that yields half the maximal activity) by DeaD assay
Method: The C50 (50% maximal activity) is a measure of the efficacy of a compound as a LAC and is determined by quantifying the dose-response curve for each LAC by DeaD assay in the presence and absence of nicotinamide. The C50 is the concentration of LAC that yields half the maximal activity. Dose response curves will generally peak and then decline. The decline is most likely due to toxicity at higher LAC concentrations. The C50 is determined relative to the maximal lifespan extension (the peak value). C50 values are provided for C1-5.
The compounds listed in Table 1 of Example 3 were assessed for their anti-aging activities using the yeast Death of Daughters (DeaD) explicative lifespan assay. Specifically, the compounds were assessed for their capacity to reverse the lifespan shortening effect of exogenous nicotinamide (NAM), which is a known inhibitor of the anti-aging protein Sir2p (Anderson et al., 2003; Bitterman et al., 2002). These compounds were compared to the activities of known cluster 1 compounds, S3-5, and #3-11.
“Activity” here is defined herein as the fold improvement in DeaD lifespan in the presence of 0.75 mM NAM relative to lifespan in the absence of cluster 1 compounds, over a range of compound concentrations between 0.5 nm-1 μm. This “activity” value is a means of assessing the usefulness of a compound as a LAC. The assays were performed as follows. DeaD strain BB579 was grown overnight in a permissive (galactose-containing) medium to mid-log phase, and then diluted to an OD600 of 0.0001 in restrictive (glucose-containing) medium with 0.75 mM NAM and the compound to be tested. Cells were then incubated at 30° C. for 3 days, with shaking and OD600 measurement every 20 minutes. The OD600 reading after 60 hours in restrictive medium, normalized to the same measurement for the “no drug” control, was used as the number for comparison.
Five of the compounds with higher activity than S3-5 were selected for further study and were designated C1-1, C1-2, C1-3, C1-4, and C1-5 (see Table 2, Example 4). All data in FIGS. 1A(1)-(6) are from media containing 0.75 mM NAM. Note the different ranges of the X axes in FIGS. 1A(1)-(6)—very different C50 values for the compounds of the present invention compared the known C1 cluster compounds. […] All five had C50 values below 50 nM, while the C50 value for S3-5 was about 650 nM, and the C50 for S1-9 was about 350 nM.

[1] = tested on: mice exposed to cigarette smoke; test: cigarette smoke-induced inflammation of mouse lungs; format: in vivo; details: ip 5 mg/kg
Method: FIG. 4. […] To obtain the data summarized in FIG. 4, Mice were exposed to cigarette smoke or filtered air for 3 consecutive days. They were treated ip with vehicle or Cob 1-2 (5 mg/kg) in DMSO: 1 group was treated daily during smoke exposure period and 1 group was pre-treated with 2 doses per week during the week prior to the smoke exposure and daily during the smoke exposure. On day 4, mice were sacrificed. Their lungs were washed and BAL fluid was stained for Europhiles count. The lungs were homogenized for ELISA quantifying MCP-1 levels.
In vivo prevention of cigarette smoke-induced inflammation of mouse lungs: Exposing mice to cigarette smoke induces an acute inflammatory response in the lungs. Cigarette smoke-induced inflammation in the lungs was assessed by quantifying the ratio of macrophages to Europhiles in bronchoalveolar lavage fluid (BALF), and levels of pro-inflammatory markers such as MCP-1 in lung tissue (Yao H, Edirisinghe I, Rajendrasozhan S, Yang S R, Caito S, Adenuga D, Rahman I. Cigarette smoke-mediated inflammatory and oxidative responses are strain-dependent in mice. Am. J. Physiol Lung Cell Mol Physiol 2008; 294: L1174-L1186.).

[2] = tested on: strain FY839 (healthy wild-type); test: Toxicity of compounds by yeast growth assay; format: cell-based; details: FY839, inset in FIG. 2
Method: The toxicity of compounds C1-1, C1-2, C1-3, C1-4, and C1-5 in yeast was assessed by determining their effects on growth of a wild-type yeast strain. FIG. 2 is a graphical representation of the toxicity data. The yeast used was strain FY839 (healthy wild-type) growing in SCD. At 12 hours all were in log phase. […] This concentration is many-fold higher than the effective concentrations of these compounds as assessed by DeaD lifespan assays.

Structure (SMILES)	reduction of secreted TNF-α relative to vehicle treated cells (RAW 264.7 cells)	leukocytes velocity in mesenteric vessels (TNF-α-treated mice)	EC50 (DeaD strain BB579) [µM]	total Europhiles count in BAL fluid ([1]; 3 days smoke exposure, FIG. 4A)	MCP-1 levels in lungs ([1]; lung homogenate ELISA, FIG. 4B)	toxic effects on growth at concentrations below 1 μM [2]
CCC(=O)C1C(=O)CC(c2ccc(F)cc2)CC1=O (stereo not drawn) [SRI# 22790, 1,3-cyclohexanedione, 2-propanoyl-5-[4-fluorophenyl]-]	exhibited anti-inflammatory activity	significantly increased leukocytes velocity	< 0.05	lowered total Europhiles count to near background levels	decreased in a statistically significant fashion	little or no toxic effects on growth
CC(=O)C1C(=O)CC(c2cccs2)CC1=O (stereo not drawn) [SRI# 22933, 1,3-cyclohexanedione, 2-acetyl 5-[thien-2-yl]-]	exhibited anti-inflammatory activity	–	< 0.05	–	–	little or no toxic effects on growth
CCCCC1CC(=O)C(C(C)=O)C(=O)C1 (stereo not drawn) [SRI# 22942, 1,3-cyclohexanedione, 2-acetyl-5-butyl-]	exhibited anti-inflammatory activity	–	< 0.05	–	–	little or no toxic effects on growth
